From patent US20230416203A1, “POTENT AND SELECTIVE INHIBITORS OF THE CALCIUM-ACTIVATED POTASSIUM CHANNEL, KCA3.1, FOR USE AS PLATFORM THERAPEUTICS” (priority 2020, published 2023)
Values after ≈ are worked out from the molar mass of the structure shown. Like-named read-outs stand apart in the source and are kept apart here.

Columns and labels:
CYP-IA2 = biological target: T1, CYP-IA2 (Homo sapiens, UniProt P05177); test: Cytochrome P450 enzymes inhibition assay, CYP-IA2; format: in vitro ADME; details: for CYP IC50/KCa3.1 IC50: CYP-IA2
T1 construct: from tissue
T1 sequence (P05177 1-516): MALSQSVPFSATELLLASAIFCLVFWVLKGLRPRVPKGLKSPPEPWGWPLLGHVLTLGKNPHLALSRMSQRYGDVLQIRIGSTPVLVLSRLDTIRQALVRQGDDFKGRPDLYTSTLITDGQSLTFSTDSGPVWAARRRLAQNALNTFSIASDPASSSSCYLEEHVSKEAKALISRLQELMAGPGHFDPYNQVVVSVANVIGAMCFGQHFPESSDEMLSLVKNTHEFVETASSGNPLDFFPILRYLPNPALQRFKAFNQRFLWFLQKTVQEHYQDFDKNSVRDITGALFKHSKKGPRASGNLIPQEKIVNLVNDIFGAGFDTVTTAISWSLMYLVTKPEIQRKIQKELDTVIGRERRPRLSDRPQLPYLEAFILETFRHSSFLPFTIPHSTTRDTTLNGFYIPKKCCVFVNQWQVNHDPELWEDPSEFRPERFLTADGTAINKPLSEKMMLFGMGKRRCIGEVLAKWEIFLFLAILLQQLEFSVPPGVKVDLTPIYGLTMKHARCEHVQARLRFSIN
Description: The metabolite formation for each substrate under the above conditions was estimated using the following formula: Percent inhibition=[1−(test area ratio/control area ratio)]×100.

in vitro = details: human, microsomes, pH 7.4
KCa3.1 channel = KCa3.1 channel (Homo sapiens, UniProt O15554); test: KCa3.1 patch-clamp (QPatch HTX automated and manual); format: cell-based
Procedure: The effect of the compounds on KCa3.1 channel was evaluated by patch-clamp using a QPatch HTX automated electrophysiology platform (Sophion, Denmark) and by manual patch-clamp (HEKA, Germany). For QPatch experiments, the giga-seal and whole-cell requirements for the automated electrophysiology were the following: minimum seal resistance=0.1 GQ; holding potential=−80 mV; holding pressure=−20 mbar; and positioning pressure=−70 mbar. For KCa3.1 experiment, the external solution was Na^+-Ringer's and contained (in mM): 160 NaCl; 10 HEPES; 4.5 KCl; 1 MgCl2; and 2 CaCl2 (pH=7.4, 310 mOsm). […] Following establishment of the whole-cell configuration, cells were held at −80 mV and KCa3.1 currents elicited by a voltage protocol that held at −80 mV for 20 ms, stepped to −120 mV for 20 ms, ramped from −120 to +40 mV over 200 ms, and then stepped back to −120 mV for 20 ms. This pulse protocol was applied every 10 s. Current slopes (in amperes per second) were measured using the Sophion QPatch software and exported to Microsoft Excel and GraphPad Prism 7 for analysis. […] Curve-fitting and IC50 determination were performed using GraphPad Prism software.

[1] = biological target: CaV1.2 channel over KCa3.1 (Homo sapiens, UniProt Q13936); test: in vitro; details: pH 7.4
[2] = Plasma protein binding assay (equilibrium dialysis), human plasma; format: in vitro ADME; details: pH 7.4
Procedure: Human and mouse plasma (150 μL) containing test compound (3 μM, final concentration) and sodium phosphate buffer (150 μL, 100 mM, pH 7.4) were added to the equilibrium dialysis device and equilibrated at 37° C. for 4.5 h with constant shaking. After equilibration, 10 μL of the plasma was taken out from the first half of the well and mixed with 50 μL of blank buffer, and later quenched with 200 μL of 0.05% formic acid in ACN containing 100 ng/mL of Loperamide, Phenacetin & Tolbutamide as internal standards. Similarly, 50 μL of […] was taken from the second half of the well and mixed with 10 μL of blank […] before quenching. […] All samples were centrifuged at 14,000 rpm for 5 min at 4° C. Warfarin and naltrexone were used as positive controls. Supernatant of all samples were analyzed by LC-MS/MS.

[3] = Solubility test (PBS, HPLC-UV); format: physicochemical; details: kinetic from dmso stock
Procedure: Calibration standards at 1, 5, 10, 50, 100, 200 and 300 μM were prepared in DMSO from a 20 mM stock. […] The plate was covered and shook at 150 rotations per min for 90 min. At the end of 90 min, samples were filtered using MultiScreen HTS vacuum Manifold assembly and the filtrate was collected onto the acceptor plate. An aliquot (150 μL) of the filtrate from the above 96-well acceptor plate was transferred into HPLC vials and analyzed by HPLC-UV. Verapamil, ketoconazole and reserpine were used as high, medium and low soluble reference standards respectively.

[4] = Plasma and liver studies after 14 days of repeated oral dose; format: in vivo, C57/BL6 mice; details: C57/BL6, mouse; for Kp at 14 days: liver/plasma, read-out: Liver to Plasma Ratio

Chain of CaV1.2 channel over KCa3.1 (Q13936 whole entry): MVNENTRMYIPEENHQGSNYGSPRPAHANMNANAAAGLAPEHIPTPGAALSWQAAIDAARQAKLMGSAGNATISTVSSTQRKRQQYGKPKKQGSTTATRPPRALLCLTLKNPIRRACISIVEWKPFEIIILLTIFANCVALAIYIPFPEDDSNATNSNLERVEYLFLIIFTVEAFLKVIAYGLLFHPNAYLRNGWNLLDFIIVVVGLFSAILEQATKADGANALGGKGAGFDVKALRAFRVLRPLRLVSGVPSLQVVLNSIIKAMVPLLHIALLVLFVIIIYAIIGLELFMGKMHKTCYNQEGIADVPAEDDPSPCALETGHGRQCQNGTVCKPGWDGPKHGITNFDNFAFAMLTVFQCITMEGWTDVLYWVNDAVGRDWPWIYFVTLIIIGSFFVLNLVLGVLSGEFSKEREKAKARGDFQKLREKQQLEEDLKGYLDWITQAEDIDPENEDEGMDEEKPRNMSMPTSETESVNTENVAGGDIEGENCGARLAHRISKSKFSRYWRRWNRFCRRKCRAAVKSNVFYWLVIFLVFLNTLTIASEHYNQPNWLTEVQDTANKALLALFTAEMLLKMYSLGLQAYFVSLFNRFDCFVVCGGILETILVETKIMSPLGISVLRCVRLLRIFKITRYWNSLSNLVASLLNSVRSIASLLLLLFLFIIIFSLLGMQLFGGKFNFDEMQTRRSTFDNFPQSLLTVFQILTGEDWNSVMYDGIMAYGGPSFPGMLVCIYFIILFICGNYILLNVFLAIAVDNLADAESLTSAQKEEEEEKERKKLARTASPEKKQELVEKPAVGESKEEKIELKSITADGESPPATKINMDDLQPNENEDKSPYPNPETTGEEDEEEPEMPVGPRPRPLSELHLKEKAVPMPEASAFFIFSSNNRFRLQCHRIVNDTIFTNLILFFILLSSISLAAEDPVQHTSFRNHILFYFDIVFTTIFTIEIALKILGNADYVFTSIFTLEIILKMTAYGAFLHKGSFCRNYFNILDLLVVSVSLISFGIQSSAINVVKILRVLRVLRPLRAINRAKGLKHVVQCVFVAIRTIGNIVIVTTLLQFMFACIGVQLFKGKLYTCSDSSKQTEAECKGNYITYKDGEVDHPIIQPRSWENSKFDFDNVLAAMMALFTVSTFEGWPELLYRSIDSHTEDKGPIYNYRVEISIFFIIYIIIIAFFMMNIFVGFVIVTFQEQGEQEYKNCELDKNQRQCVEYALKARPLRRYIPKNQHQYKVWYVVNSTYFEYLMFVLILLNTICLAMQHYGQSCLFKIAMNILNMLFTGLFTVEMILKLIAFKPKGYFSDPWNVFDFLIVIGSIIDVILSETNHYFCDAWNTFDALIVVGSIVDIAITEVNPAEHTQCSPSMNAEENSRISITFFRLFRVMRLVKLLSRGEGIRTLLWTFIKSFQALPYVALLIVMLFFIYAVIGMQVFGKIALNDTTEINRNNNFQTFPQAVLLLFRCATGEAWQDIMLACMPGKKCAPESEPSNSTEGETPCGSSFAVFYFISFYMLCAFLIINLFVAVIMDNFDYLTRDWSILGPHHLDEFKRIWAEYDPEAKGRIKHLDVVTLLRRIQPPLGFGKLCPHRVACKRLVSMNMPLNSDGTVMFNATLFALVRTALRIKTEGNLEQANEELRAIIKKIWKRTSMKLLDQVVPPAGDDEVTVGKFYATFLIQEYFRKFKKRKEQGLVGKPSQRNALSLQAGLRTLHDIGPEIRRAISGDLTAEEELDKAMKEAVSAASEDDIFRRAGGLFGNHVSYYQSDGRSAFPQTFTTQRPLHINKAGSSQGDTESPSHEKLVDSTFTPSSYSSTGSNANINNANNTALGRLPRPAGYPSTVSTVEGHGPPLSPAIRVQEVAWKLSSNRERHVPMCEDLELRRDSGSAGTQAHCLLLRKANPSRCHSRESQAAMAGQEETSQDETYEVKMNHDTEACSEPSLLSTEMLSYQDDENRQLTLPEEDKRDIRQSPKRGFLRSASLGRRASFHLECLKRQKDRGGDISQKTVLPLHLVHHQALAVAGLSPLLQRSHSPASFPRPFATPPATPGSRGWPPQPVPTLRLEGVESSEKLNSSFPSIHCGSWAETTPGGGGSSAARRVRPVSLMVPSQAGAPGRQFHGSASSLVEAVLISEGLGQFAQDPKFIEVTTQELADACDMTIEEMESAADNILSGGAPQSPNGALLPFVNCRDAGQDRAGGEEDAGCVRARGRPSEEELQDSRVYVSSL

With `COC(=O)C1=C(C)NC(C)=C(C(=O)OC)C1c1ccc(F)c(C(F)(F)F)c1` [Compound 101] as the compound, how does the “CYP IC50/KCa3.1 IC50” value (CYP-IA2) read?
The value was 558.

What about the IC50 (CYP-IA2; microsomes) of the same compound?
Its IC50 is 9.1 µM.

And the half-life at 1 μM (in vitro)?
Its half-life at 1 μM is 22 min.

What about the IC50 (KCa3.1 channel; IC50 (nM), block of KCa3.1, patch clamp (Table 2)) of the same compound?
Its IC50 is 16 ± 0.2 nM.

And the IC50 (KCa3.1 channel; KCa3.1, Table 5)?
Its IC50 is 16.2 ± 0.2 nM.

And the selectivity ratio [1]?
Its selectivity ratio is 200.

What about the fraction unbound at 4.5 h, 3 μM [2] of the same compound?
Its fraction unbound at 4.5 h, 3 μM is 0.0073.

For `COC(=O)C1=CNC=C(C(=O)OC)C1c1ccc(F)c(C(F)(F)F)c1` [Compound 103, Dimethyl 4-(4-fluoro-3-(trifluoromethyl)phenyl)-1,4-dihydropyridine-3,5-dicarboxylate], which solubility at 90 min ([3]; pH 1.5, aqueous buffer, PBS pH 1.5) is on record?
Its solubility at 90 min is 54.6 µM (≈ 19.6 µg/mL).

And the solubility at 90 min ([3]; pH 5, aqueous buffer, PBS pH 5.0)?
Its solubility at 90 min is 58.1 µM (≈ 20.9 µg/mL).

And the solubility at 90 min ([3]; pH 7.4, aqueous buffer, PBS pH 7.4)?
The solubility at 90 min was no more than 87.4 µM.

What about the “CYP IC50/KCa3.1 IC50” value (CYP-IA2) of the same compound?
Its value is 3279.

What about the half-life at 1 μM (in vitro) of the same compound?
The half-life at 1 μM was 16 min.

And the IC50 (KCa3.1 channel; KCa3.1, Table 5)?
Its IC50 is 6.1 ± 0.9 nM.

And the IC50 (KCa3.1 channel; KCa3.1 IC50 (nM), Table 3)?
The IC50 was 6.1 nM.

What about the selectivity ratio [1] of the same compound?
Its selectivity ratio is 2210.

And the Kp at 14 days ([4]; 25 mg/kg BID oral 14 days, Female mice)?
Its Kp at 14 days is 85.6.

What about the Kp at 14 days ([4]; 25 mg/kg BID oral 14 days, Male mice) of the same compound?
Its Kp at 14 days is 36.

And the Kp at 14 days ([4]; 50 mg/kg BID oral 14 days, Female mice)?
Its Kp at 14 days is 31.9.

What about the Kp at 14 days ([4]; 50 mg/kg BID oral 14 days, Male mice) of the same compound?
Its Kp at 14 days is 19.6.

What about the concentration at 14 days ([4]; liver, 25 mg/kg BID oral 14 days, Female mice, read-out: Average Concentration Liver) of the same compound?
Its concentration at 14 days is 8420 ng/g.

What about the concentration at 14 days ([4]; liver, 25 mg/kg BID oral 14 days, Male mice, read-out: Average Concentration Liver) of the same compound?
The concentration at 14 days was 10100 ng/g.

What about the concentration at 14 days ([4]; liver, 50 mg/kg BID oral 14 days, Female mice, read-out: Average Concentration Liver) of the same compound?
The concentration at 14 days was 12100 ng/g.

And the concentration at 14 days ([4]; liver, 50 mg/kg BID oral 14 days, Male mice, read-out: Average Concentration Liver)?
Its concentration at 14 days is 17500 ng/g.

What about the concentration at 14 days ([4]; plasma, 25 mg/kg BID oral 14 days, Female mice, read-out: Average Concentration Plasma) of the same compound?
Its concentration at 14 days is 100 ng/mL.

And the concentration at 14 days ([4]; plasma, 25 mg/kg BID oral 14 days, Male mice, read-out: Average Concentration Plasma)?
The concentration at 14 days was 297 ng/mL.

What about the concentration at 14 days ([4]; plasma, 50 mg/kg BID oral 14 days, Female mice, read-out: Average Concentration Plasma) of the same compound?
Its concentration at 14 days is 401 ng/mL.

What about the concentration at 14 days ([4]; plasma, 50 mg/kg BID oral 14 days, Male mice, read-out: Average Concentration Plasma) of the same compound?
The concentration at 14 days was 929 ng/mL.
